Assay results from patent publication US12384800B2, “Antitumoral compounds” (priority 2017, dated 2025).

What was measured:
MDA-MB-231 tumors = experiment: Human breast xenograft, tumor volume
Procedure: (§7) Female athymic nu/nu mice (Harlan Laboratories Models, S.L. Barcelona, Spain or Envigo, Spain) were utilized for all experiments. Animal were housed in individually ventilated cages Sealsafe® Plus, Techniplast S.P.A.), up to ten per cage on a 12-hour light-dark cycle at 21-23° C. and 40-60% humidity. […] Animals were acclimated for at least 5 days prior to tumor implantation with a tumor cell suspension.
MDA-MB-231 cells were maintained in vitro at 37° C. with 5% CO2 in Dulbecco's Modified Eagle's Medium (Sigma-Aldrich, Co). Culture cells were passaged every 3 to 5 days upon reaching confluence.
(§8) Treatment tolerability was assessed by monitoring body weight evolution, clinical signs of systemic toxicity, as well as evidences of local damage in the injection site.
(§9) In Xenograft Studies with Other Cell Lines: • Tumor volume was calculated using the equation (a·b^2)/2, where a: length (longest diameter) and b: width (shortest diameter) were measured in mm by using digital caliper (Fowler Sylvac, S235PAT).
(§10) Treatments producing >20% lethality and/or 20% net body weight loss were considered toxic.

A2780 tumors = experiment: Human ovarian xenograft, tumor volume
Procedure: as §7
Culture cells were passaged every 3 to 5 days upon reaching confluence. Each animal was subcutaneously implanted (on the right flank using 26G needle and a 1 cc syringe) at 4-6 weeks of age with 10×10^6 A2780 cells suspended in 0.05 mL of a solution consisting of 50% Matrigel® (Corning Incorporated Life Sciences) and 50% medium without serum or antibiotics.
as §8, §9, §10

HGC27 tumors = experiment: Human gastric xenograft, tumor volume
H460 tumors = experiment: Human lung (NSCLC) xenograft, tumor volume
HT1080 tumors = experiment: Human fibrosarcoma xenograft, total diameter (tumor + leg)
Procedure: as §7
HT1080 cells were maintained in vitro at 37° C. with 5% CO2 in Minimum Essential Medium Eagle (MEME) (Sigma-Aldrich, Co). Each animal was orthotopically implanted into gastroecnemius muscle by an intramuscular injection using a 26G needle and a 1 cc syringe at 4-6 weeks of age, with 10×10^6 HT1080 cells, suspended in serum free medium, without antibiotics.
as §8
In xenograft studies with HT1080 cell line: • Total diameter (tumor+leg) measurements were determined by using digital caliper (Fowler Sylvac, S235PAT).
as §10

[1] = tested on: A549 cells (lung carcinoma, NSCLC); experiment: cells; details: A549, SRB; for GI50: 72 hours treatment; for TGI: total cell growth inhibition; for TGI / CC50: 72 hours; for CC50: read-out: LC50, 50% net cell killing
From the text: (§1) The aim of this assay is to evaluate the in vitro cytostatic (ability to delay or arrest tumor cell growth) or cytotoxic (ability to kill tumor cells) activity of the samples being tested.
(§2) A colorimetric assay, using sulforhodamine B (SRB) reaction has been adapted to provide a quantitative measurement of cell growth and viability (following the technique described by Skehan et al. J. Natl. Cancer Inst. 1990, 82, 1107-1112). Another colorimetric assay based on 3-(4,5-Dimethylthiazol-2-yl)-2,5-diphenyltetrazolium bromide (MTT) reduction to a purple formazan has been also used to assess the antiproliferative activity (following the technique described by Mosmann et al. J. Immunol. Meth. 1983, 65, 55-63).
(§3) These forms of assays employ 96-well cell culture microplates following the standards of the American National Standards Institute and the Society for Laboratory Automation and Screening (ANSI SLAS 1-2004 (R2012) Oct. 12, 2011. All the cell lines used in this study were obtained from the American Type Culture Collection (ATCC) and derive from different types of human cancer.
(§4) A549, HT29, MDA-MB-231 and PSN1 cells were maintained in Dulbecco's Modified Eagle Medium (DMEM) while PC-3 and 22Rv1 cells were maintained in Roswell Park Memorial Institute Medium (RPMI). All cell lines were supplemented with 10% Fetal Bovine Serum (FBS), 2 mM L-glutamine, 100 U/mL penicillin, and 100 […] at 37° C., 5% CO2 and 98% humidity. For the experiments, cells were harvested from subconfluent cultures using trypsinization and resuspended in fresh medium before counting and plating.
(§5) A549, HT29, MDA-MB-231 and PSN1 cells were seeded in 96 well microtiter plates, at 5000 cells per well in aliquots of 150 μL, and allowed to attach to the plate surface for 18 hours (overnight) in drug free medium. After that, one control (untreated) plate of each cell line was fixed (as described below) and used for time zero reference value. Culture plates were then treated with test compounds (50 μL aliquots of 4× stock solutions in complete culture medium plus 4% DMSO) using ten ⅖ serial dilutions (concentrations ranging from 10 to 0.003 μg/mL) and triplicate cultures (1% final concentration in DMSO). After 72 hours treatment, the antitumor effect was measured by using the SRB methodology: Briefly, cells were washed twice with PBS, fixed for 15 min in 1% glutaraldehyde solution at room temperature, rinsed twice in PBS, and stained in 0.4% SRB solution for 30 min at room temperature. Cells were then rinsed several times with 1% acetic acid solution and air-dried at room temperature.
(§6) Effects on cell growth and survival were estimated by applying the NCI algorithm (Boyd M R and Paull K D. Drug Dev. Res. 1995, 34, 91-104). The values obtained in triplicate cultures were fitted by nonlinear regression to a four-parameters logistic curve by nonlinear regression analysis.

[2] = tested on: HT29 cells (colorectal adenocarcinoma); experiment: cells; details: HT29, SRB; for GI50: 72 hours treatment; for TGI: total cell growth inhibition; for TGI / CC50: 72 hours; for CC50: read-out: LC50, 50% net cell killing
From the text: as §1, §2, §3, §4, §5, §6

[3] = tested on: MDA-MB-231 cells (breast adenocarcinoma); experiment: cells; details: MDA-MB-231, SRB; for GI50: 72 hours treatment; for TGI: total cell growth inhibition; for TGI / CC50: 72 hours; for CC50: read-out: LC50, 50% net cell killing
From the text: as §1, §2, §3, §4, §5, §6

[4] = tested on: PSN1 cells (pancreas adenocarcinoma); experiment: cells; details: PSN1, SRB; for GI50: 72 hours treatment; for TGI: total cell growth inhibition; for TGI / CC50: 72 hours; for CC50: read-out: LC50, 50% net cell killing
From the text: as §1, §2, §3, §4, §5, §6

`COc1c(C)cc2c(c1O)[C@@H]1[C@@H]3[C@@H]4SC[C@]5(N[C@@H](CN)Cc6c5[nH]c5ccccc65)C(=O)OC[C@@H](c5c6c(c(C)c(OC(C)=O)c54)OCO6)N3[C@@H](O)[C@H](C2)N1C` [Compound 12-R] was tested, and the “Median Tumor Volume” value (MDA-MB-231 tumors; Day 2) was 223.0 mm^3, the “Median Tumor Volume” value (MDA-MB-231 tumors; Day 5) was 296.1 mm^3 and the “Median Tumor Volume” value (MDA-MB-231 tumors; Day 7) was 378.3 mm^3. The “Median Tumor Volume” value (MDA-MB-231 tumors; Day 9) was 472.7 mm^3, the “Median Tumor Volume” value (MDA-MB-231 tumors; Day 12) was 609.9 mm^3 and the “Median Tumor Volume” value (MDA-MB-231 tumors; Day 14) was 782.5 mm^3. For the same compound, the “Median Tumor Volume” value (MDA-MB-231 tumors; Day 16) was 972.4 mm^3, the “Median Tumor Volume” value (MDA-MB-231 tumors; Day 19) was 1211.0 mm^3 and the “Median Tumor Volume” value (MDA-MB-231 tumors; Day 21) was 1463.4 mm^3. The “Median Tumor Volume” value (MDA-MB-231 tumors; Day 23) was 1756.5 mm^3, the “Median Tumor Volume” value (MDA-MB-231 tumors; Day 26) was 2028.6 mm^3 and the “Median Tumor Volume” value (A2780 tumors; Day 2) was 302.8 mm^3. The “Median Tumor Volume” value (A2780 tumors; Day 5) was 786.5 mm^3, the “Median Tumor Volume” value (A2780 tumors; Day 7) was 1113.3 mm^3 and the “Median Tumor Volume” value (A2780 tumors; Day 9) was 1490.6 mm^3. The “Median Tumor Volume” value (A2780 tumors; Day 12) was 2025.00 mm^3, the “Median Tumor Volume” value (A2780 tumors; Day 14) was 2025.00 mm^3 and the “Median Tumor Volume” value (HGC27 tumors; Day 2) was 413.3 mm^3. For the same compound, the “Median Tumor Volume” value (HGC27 tumors; Day 5) was 809.1 mm^3, the “Median Tumor Volume” value (HGC27 tumors; Day 7) was 1261.5 mm^3 and the “Median Tumor Volume” value (HGC27 tumors; Day 9) was 1589.5 mm^3. The “Median Tumor Volume” value (HGC27 tumors; Day 12) was 2017.9 mm^3, the “Median Tumor Volume” value (HGC27 tumors; Day 14) was 2034.9 mm^3 and the “Median Tumor Volume” value (H460 tumors; Day 2) was 410.7 mm^3. The “Median Tumor Volume” value (H460 tumors; Day 5) was 796.7 mm^3, the “Median Tumor Volume” value (H460 tumors; Day 7) was 1167.9 mm^3 and the “Median Tumor Volume” value (H460 tumors; Day 9) was 1360.3 mm^3. The “Median Tumor Volume” value (H460 tumors; Day 12) was 1666.0 mm^3, the “Median Tumor Volume” value (H460 tumors; Day 14) was 2025.0 mm^3 and the “Total diameter (tumor + leg)” value (HT1080 tumors; Day 2) was 8.9 mm. The “Total diameter (tumor + leg)” value (HT1080 tumors; Day 5) was 8.8 mm, the “Total diameter (tumor + leg)” value (HT1080 tumors; Day 7) was 9.5 mm and the “Total diameter (tumor + leg)” value (HT1080 tumors; Day 9) was 9.5 mm. For the same compound, the “Total diameter (tumor + leg)” value (HT1080 tumors; Day 12) was 11.0 mm, the “Total diameter (tumor + leg)” value (HT1080 tumors; Day 14) was 11.7 mm and the “Total diameter (tumor + leg)” value (HT1080 tumors; Day 16) was 12.9 mm. For the same compound, the “Total diameter (tumor + leg)” value (HT1080 tumors; Day 19) was 13.5 mm, the “Total diameter (tumor + leg)” value (HT1080 tumors; Day 21) was 15.5 mm and the “Total diameter (tumor + leg)” value (HT1080 tumors; Day 23) was 18.0 mm.

Compound `COc1ccc2oc3c(c2c1)CCN[C@]31CS[C@@H]2c3c(OC(C)=O)c(C)c4c(c3[C@H](COC1=O)N1[C@@H]2[C@H]2c3c(cc(C)c(OC)c3O)C[C@@H]([C@@H]1C#N)N2C)OCO4` [Compound 34] has a GI50 [1] of 59.1 nM, a TGI [1] of 8.05E−08 Molar and a CC50 [1] of over 126 nM. The GI50 [2] was 54.1 nM, the TGI [2] was 8.55E−08 Molar and the CC50 [2] was 125 nM. The GI50 [3] was 45.3 nM, the TGI [3] was 7.67E−08 Molar and the CC50 [3] was 112 nM. It also gave a GI50 [4] of 54.1 nM, a TGI [4] of 5.91E−08 Molar and a CC50 [4] of over 126 nM.

For `COc1c(C)cc2c(c1O)[C@@H]1[C@@H]3[C@@H]4SC[C@]5(N[C@@H](CO)Cc6c5oc5ccccc65)C(=O)OC[C@@H](c5c6c(c(C)c(OC(C)=O)c54)OCO6)N3[C@@H](C#N)[C@H](C2)N1C` [Compound 38-R], the GI50 [1] was 0.654 nM, the TGI [1] was 1.04E−09 Molar and the CC50 [1] was over 126 nM. It also gave a GI50 [2] of 0.541 nM, a TGI [2] of 5.91E−10 Molar and a CC50 [2] of over 126 nM. For the same compound, the GI50 [3] was 0.453 nM, the TGI [3] was 8.43E−10 Molar and the CC50 [3] was 2.01 nM. For the same compound, the GI50 [4] was 0.654 nM, the TGI [4] was 9.94E−10 Molar and the CC50 [4] was 1.76 nM.

In the case of `COc1c(C)cc2c(c1O)[C@@H]1[C@@H]3[C@@H]4SC[C@]5(N[C@H](CO)Cc6c5oc5ccccc65)C(=O)OC[C@@H](c5c6c(c(C)c(OC(C)=O)c54)OCO6)N3[C@@H](C#N)[C@H](C2)N1C` [Compound 38-S], the GI50 [1] is reported as 8.05 nM, the TGI [1] is reported as 8.55E−09 Molar and the CC50 [1] is reported as 9.44 nM. It also gave a GI50 [2] of 4.53 nM, a TGI [2] of 7.05E−09 Molar and a CC50 [2] of over 126 nM. It also gave a GI50 [3] of 2.52 nM, a TGI [3] of 4.28E−09 Molar and a CC50 [3] of 7.8 nM. For the same compound, the GI50 [4] was 5.03 nM, the TGI [4] was 8.18E−09 Molar and the CC50 [4] was 15.1 nM.
